Drawing on patent publication US11897902B1, “Nano-sized mixed ligand [4-bromo-2-(quinolin-2-yliminomethyl)-phenol imine- phenanthroline] Ru(III) complex for medicinal applications” (KING FAISAL UNIVERSITY, priority 2023, dated 2024), this text covers IC50, inhibition zone and MIC for three molecules.

Values after ≈ are worked out from the molar mass of the structure shown.

Assay type in all cases: cell-based
In one test the test system is Breast cancer cells line. The test can be described thus: Cytotoxic activity, Sulfo-Rhodamine-B-stain (SRB). The note with it: Homo sapiens, breast cancer cell line, 48 hours. The method, then:
The anticancer activity was made at the National Cancer Institute, Cancer Biology Department, Pharmacology Department, Cairo University. The absorbance or optical density (O.D.) of each well was measured spectrophotometrically at 564 (nm) with an “ELIZA” micro plate reader (Meter tech. Σ960, “USA”). Evaluation of the cytotoxic activity of the prepared nano-complex was carried out against Breast cancer cells line. The evaluation process was carried out in vitro using the Sulfo-Rhodamine-B-stain (SRB). Cells were placed in 96-multiwell plate (10^4 cells/well) for 24 hours before processing with the complexes to allow attachment of cell to the wall of the plate. Various concentrations of the compounds under test in DMSO (0, 1, 2.5, 5 and 10 μM) were added to the cell monolayer. Monolayer cells were incubated with the complexes for 48 hours at 37° C. and in atmosphere of 5% CO2. After 48 hours, cells were fixed, rinsed, and stained with Sulfo-Rhodamine-B-stain. Excess stain was washed with acetic acid and attached stain was treated with Tris EDTA buffer. Color intensity was measured in an ELISA reader. IC50 was evaluated and potency was calculated with regard to percentage of change of (vistabline standard). The relation between surviving fraction and compound concentration is plotted to get the survival curve of each tumor cell line after the specified compound. […]

The subject of another test is Escherichia coli(−ve). The test can be described thus: Antimicrobial activity, agar well diffusion (inhibition zone, MIC). The note with it: E. coli. The method, then: To evaluate antimicrobial activity, the bacterial strain Escherichia coli(−ve), was used. These strains were cultured in a nutrient agar and Muller-Hinton medium. Ofloxacin compound was used as a standard drug for comparison.
The susceptibilities of such growth rate of microorganisms were measured in vitro by agar well diffusion method. The tested nano complex was dissolved in dimethyl sulfoxide at different concentrations (10 and 20 mg/ml). 1 cm^3 of a 24 h broth culture containing 10^6 CFU/cm^3 was placed in sterile Petri-dishes. Molten nutrient agar (15 cm 3) maintained at 45° C. was then poured into the Petri-dishes and allowed to solidify. Then holes of 6 mm diameter were formed in the agar using a sterile cork borer and these holes were completely filled with the test solutions. The plates were incubated for 24 h at 37° C. After the incubation period, the zone of inhibition of each well was determined by measuring the zones of growth inhibition (mm) against the test microorganisms with zone reader (Hi Antibiotic zone scale). […] The measurements were made in triplicate for each compound and their average values are reported.

The next test has as its system Aspergillus flavus. The test can be described thus: Antifungal activity, well diffusion method (inhibition zone, MIC). The method, then:
To evaluate antimicrobial activity, the fungal strain (Aspergillus flavus), was used. These strains were cultured in nutrient agar and Muller-Hinton medium. Fluconazole compound was used as a standard drug for comparison.
Antifungal activities of the prepared nano-complex were studied against three fungal cultures using well diffusion method. The tested fungi were inoculated in Sabouraud dextrose broth medium (Hi-Media Mumbai) and incubated at 35° C. for 72 h and subsequently a suspension of about 1.60×10^4-6.00×10^4 c.f.u/ml was introduced agar plates and a sterile glass spreader was used for even distribution of the inoculum. The discs measuring 6 mm in diameter were prepared from Whatman No. 1 filter paper and sterilized by dry heat at 140° C. for 1 h. The sterile discs previously soaked in known concentration of the tested compounds were placed in Sabouraud dextrose Agar (SDA) plates. The plates were inverted and incubated at 35° C. for 7 days. The susceptibility was assessed on the basis of diameter of inhibition against albicans and non-albicans strain of fungi.

One may read the IC50 as the concentration needed to halve the response being measured. Lower therefore signals greater potency in that assay. For `CC[C@]1(O)C[C@@H]2CN(CCc3c([nH]c4ccccc34)[C@@](C(=O)OC)(c3cc4c(cc3OC)N(C)[C@H]3[C@@](O)(C(=O)OC)[C@H](OC(C)=O)[C@]5(CC)C=CCN6CC[C@]43[C@@H]65)C2)C1` [vinblastine], in the test on Breast cancer cells line, the IC50 is 4.5 mg/L (≈ 5.55 µM).

The MIC is the lowest concentration found to suppress growth. High values mean weaker potency, low ones greater potency. `CC1COc2c(N3CCN(C)CC3)c(F)cc3c(=O)c(C(=O)O)cn1c23` (centres unmarked) [Ofloxacin] registered an inhibition zone with Escherichia coli(−ve) (agar well diffusion, 24 h at 37° C.) of 35 mm. In the test on Escherichia coli(−ve) (Escherichia coli), this molecule came in with an MIC of 2.5 mg/L (≈ 6.92 µM).

Regarding `OC(Cn1cncn1)(Cn1cncn1)c1ccc(F)cc1F` [Fluconazol, Fluconazole], in the test on Aspergillus flavus, it took 2 mg/L (≈ 6.53 µM) to inhibit growth (MIC). Moreover, the inhibition zone with Aspergillus flavus (well diffusion, 35° C. for 7 days) amounted to 24 mm.
